In paper PMC4865847, “Putative histidine kinase inhibitors with antibacterial effect against multi-drug resistant clinical isolates identified by in vitro and in silico screens” (Scientific Reports, 2016):
≈ marks a conversion by molar mass, not a printed value. Where two headings read alike, the source gives them in different places.

Experiments:
[1] = target: S. aureus PhoR (PhoR^S) (Staphylococcus aureus, UniProt Q2FXN7); experiment: In vitro autophosphorylation kinase assay with γ-32P-ATP, PhoR^S; type: biochemical; settings: for IC50: autophosphorylation, one time point (30 sec), 10% DMSO; for inhibition at 2000 µM: read-out: inhibition of PhoR^S autophosphorylation
Experimental: (§1) To evaluate the inhibitory capacity of selected hits from DSF, SBVS and LBSS in vitro autophosphorylation kinase assays with γ-^32P-ATP were performed as previously described. Ligands were dissolved in 100% DMSO. […] Controls lacking ligands contained an equal concentration of DMSO. Inhibition of autophosphorylation was determined by incubating 0.12 mg/ml (≈4 μM) HK and up to 20 mM fragment in kinase buffer (50 mM Tris HCl, pH 8.5, 50 mM KCl, 5 mM MgCl2, 0.5 mM EDTA and 0.1 mM DTT). Autophosporylation reactions were initiated by addition of 0.1 μCi/μl γ-^32P-ATP containing from 0.03 to 0.06 μM ATP (final concentrations). Autophosphorylation was quenched with 2xSDS-PAGE sample buffer supplemented with 50 mM EDTA. Samples were applied without heating to 15% (w/v) Tris-glycine SDS-polyacrylamide gels. After electrophoresis, the bottoms of the gels were removed to lower the background from the unincorporated radiolabeled ATP. Gels were dried without staining on a Bio-Rad Gel Air drying system and the phosphorylated protein was quantified by phosphor-imaging. Prism GraphPad was used for curve fitting and statistical analysis.

[2] = target: T1, E. coli PhoR (PhoR^E) (Escherichia coli, UniProt P08400); experiment: In vitro autophosphorylation kinase assay with γ-32P-ATP, PhoR^E; type: biochemical; settings: for IC50: autophosphorylation, one time point (30 sec), 10% DMSO; for inhibition at 2000 µM: 2 mM, 30 sec, compared to negative control
T1 construct: The catalytic portion (DHp and CA domain) of E. coli PhoR (PhoR^E); made in house; host or cells: E. coli RIL
Experimental: as §1, with “Samples were applied without heating to 15% (w/v) Tris-glycine SDS-polyacrylamide gels.” left out

[3] = test system: Staphylococcus aureus; experiment: Antibacterial susceptibility testing (MIC/MBC), S. aureus; type: cell-based; settings: Staphylococcus aureus
Experimental: (§2) Minimal inhibitory concentrations (MICs) were determined following a standard double-dilution method. […] For S. pneumoniae MICs were determined by adapting the standard double-dilution method to anaerobic conditions and of this microorganism (use of Todd Hewitt Yeast extract with 200 U/mL of catalase and continuous monitoring of growth).

[4] = test system: Staphylococcus epidermidis; experiment: Antibacterial susceptibility testing (MIC/MBC), S. epidermidis; type: cell-based; settings: Staphylococcus epidermidis
Experimental: as §2

[5] = test system: Escherichia coli; experiment: Antibacterial susceptibility testing (MIC/MBC), E. coli; type: cell-based; settings: Escherichia coli; for MIC: read-out: MIC E. coli CFT 073; for MBC: read-out: MBC E. coli CFT 073
Experimental: as §2

[6] = target: T2, S. pneumoniae WalK (Streptococcus pneumoniae, UniProt Q8DPL8); experiment: In vitro autophosphorylation kinase assay with γ-32P-ATP, WalK; type: biochemical; settings: autophosphorylation, one time point (30 sec), 10% DMSO
T2 construct: WalK (amino acids from 208 to 449); N-terminal His6-3C site of vector pOPINF (own knowledge of the vector); made in house; host or cells: E. coli RIL
Experimental: as §1, with “Samples were applied without heating to 15% (w/v) Tris-glycine SDS-polyacrylamide gels.” left out

[7] = DSM20231, strain DSM 20231, read-out: MIC S. aureus DSM 20231
[8] = DSM20044, strain DSM 20044, read-out: MIC S. epidermidis DSM 20044
[9] = DSM20231, read-out: MBC S. aureus DSM 20231
[10] = DSM20231, read-out: MIC S. aureus DSM 20231
[11] = DSM20044, read-out: MIC S. epidermidis DSM 20044

T1 sequence (P08400 210-425): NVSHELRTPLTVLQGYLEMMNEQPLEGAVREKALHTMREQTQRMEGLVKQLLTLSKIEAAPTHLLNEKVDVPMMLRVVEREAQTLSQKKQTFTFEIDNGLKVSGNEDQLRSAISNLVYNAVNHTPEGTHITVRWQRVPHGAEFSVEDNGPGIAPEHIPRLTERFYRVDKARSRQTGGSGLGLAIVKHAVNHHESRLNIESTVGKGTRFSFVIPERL
T2 sequence (Q8DPL8 208-449): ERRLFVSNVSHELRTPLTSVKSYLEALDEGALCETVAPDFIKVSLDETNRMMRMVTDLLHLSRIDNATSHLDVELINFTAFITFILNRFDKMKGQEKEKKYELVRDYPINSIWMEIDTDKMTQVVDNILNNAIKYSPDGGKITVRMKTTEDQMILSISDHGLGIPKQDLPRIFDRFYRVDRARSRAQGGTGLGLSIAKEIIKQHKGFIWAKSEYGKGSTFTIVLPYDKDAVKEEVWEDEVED
S. aureus PhoR (PhoR^S), sequence (Q2FXN7 entry or part of it): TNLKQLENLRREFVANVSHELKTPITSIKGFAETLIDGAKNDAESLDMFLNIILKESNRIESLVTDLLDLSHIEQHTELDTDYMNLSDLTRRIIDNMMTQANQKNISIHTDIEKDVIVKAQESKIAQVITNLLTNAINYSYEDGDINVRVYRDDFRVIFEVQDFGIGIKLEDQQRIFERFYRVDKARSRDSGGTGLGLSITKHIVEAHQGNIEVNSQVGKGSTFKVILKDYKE

Row | SMILES | IC50 ([1]; IC50 PhoR^S) | IC50 ([2]; IC50 PhoR^E) | MIC [3, 7] | MIC [4, 8] | MIC ([5]; strain CFT 073) | further results
1 | CC(=O)Nc1cccc(OCOc2ccc([N+](=O)[O-])cc2)c1 [S1.16] | > 2 mM | > 2 mM | > 500 µg/mL | > 500 µg/mL | > 500 µg/mL | –
2 | Nc1nc(-c2ccc(Cl)cc2)cs1 [F1.2] | – | > 2 mM | > 500 µg/mL | > 500 µg/mL | > 500 µg/mL | IC50 ([6]; IC50 WalK): > 2 mM
3 | CCN(Cc1ccc(C(=O)OC)cc1)c1cccc(NC(C)=O)c1 [S1.1] | > 2 mM | > 2 mM | > 500 µg/mL | > 500 µg/mL | > 500 µg/mL | –
4 | CC(C)(C)c1ccc(OCc2c[nH]cn2)cc1 [F1.10] | – | > 2 mM | > 500 µg/mL | > 500 µg/mL | > 500 µg/mL | IC50 ([6]; IC50 WalK): > 2 mM
5 | Brc1ccc(C2=CSC3=NCCN23)cc1 [F1.7] | – | > 2 mM | > 500 µg/mL | > 500 µg/mL | > 500 µg/mL | IC50 ([6]; IC50 WalK): > 2 mM
6 | CC(=O)c1cccc(NC(=O)N(C)Cc2ccccc2)c1 [S1.25] | > 2 mM | > 2 mM | > 500 µg/mL | > 500 µg/mL | > 500 µg/mL | –
7 | CC(=O)Nc1ccc[n+](CC(=O)c2ccc(F)cc2)c1 [S1.5] | > 2 mM | > 2 mM | > 500 µg/mL | > 500 µg/mL | > 500 µg/mL | –
8 | CC(=O)Nc1ccc(C(O)c2ccc(NC(C)=O)cc2)cc1 [S1.6] | > 2 mM | > 2 mM | > 500 µg/mL | > 500 µg/mL | > 500 µg/mL | –
9 | CC(=O)Nc1cccc(Cc2cccc(NC(C)=O)c2)c1 [S1.4] | > 2 mM | > 2 mM | > 500 µg/mL | > 500 µg/mL | > 500 µg/mL | –
10 | O=c1c2ccccc2[nH]c2ccc(O)cc12 [F2.2] | – | < 2 mM | > 500 µg/mL | > 500 µg/mL | > 500 µg/mL | inhibition at 2000 µM [2]: > 50%; IC50 ([6]; IC50 WalK): > 2 mM
11 | CC(=O)NC(Cc1ccccc1)C(=O)Nc1cccc(C)c1 (stereo not shown) [S1.19] | > 2 mM | > 2 mM | > 500 µg/mL | > 500 µg/mL | > 500 µg/mL | –
12 | CC(=O)Nc1cccc(OCc2cccc([N+](=O)[O-])c2)c1 [S1.17] | > 2 mM | > 2 mM | > 500 µg/mL | > 500 µg/mL | > 500 µg/mL | –
13 | CC(C)(C)c1ccc(NS(=O)(=O)c2ccc(N)cc2)cc1 [S1.15] | – | > 2 mM | > 500 µg/mL | > 500 µg/mL | > 500 µg/mL | IC50 ([1]; read-out: IC50 PhoR^S): < 2 mM; inhibition at 2000 µM [1]: > 75%; inhibition at 2000 µM [2]: > 40%
14 | Cc1ccc(-c2csc(N)n2)cc1 [F1.3] | – | > 2 mM | > 500 µg/mL | 500 µg/mL (≈ 2630 µM) | > 500 µg/mL | IC50 ([6]; IC50 WalK): > 2 mM; MBC ([4]; DSM20044, strain DSM 20044): 500 µg/mL (≈ 2630 µM)
15 | CC(=O)Nc1ccc(C(=O)C(O)c2ccc(NC(C)=O)cc2)cc1 (stereo not shown) [S1.12] | > 2 mM | > 2 mM | > 500 µg/mL | > 500 µg/mL | > 500 µg/mL | –
16 | CCC(c1cccc(Br)c1)C(C(C)=O)c1ccc(OC)cc1 (stereo not shown) [S1.23] | > 2 mM | > 2 mM | > 500 µg/mL | > 500 µg/mL | > 500 µg/mL | –
17 | c1ccc2[nH]ccc2c1 [F2.7] | – | – | – | – | – | IC50 ([2]; read-out: IC50 PhoR^E): > 2 mM; IC50 ([6]; read-out: IC50 WalK): > 2 mM; MBC [3, 9]: > 500 µg/mL; MIC [3, 10]: 500 µg/mL (≈ 4270 µM); MIC [4, 11]: > 500 µg/mL; MIC [5]: 500 µg/mL (≈ 4270 µM)

Row | SMILES | IC50 ([1]; IC50 PhoR^S) | IC50 ([2]; IC50 PhoR^E) | MIC [3, 7] | MIC [4, 8] | MIC ([5]; strain CFT 073) | further results
18 | Cn1c2ccccc2c2ccccc21 [F2.6] | – | – | – | – | – | IC50 ([2]; read-out: IC50 PhoR^E): > 2 mM; IC50 ([6]; read-out: IC50 WalK): > 2 mM; MIC [3, 10]: > 500 µg/mL; MIC [4, 11]: > 500 µg/mL; MBC [5]: 500 µg/mL (≈ 2760 µM); MIC [5]: > 500 µg/mL
19 | O=C(NCc1cccc(Cl)c1)Nc1ccccc1 [S1.22] | > 2 mM | > 2 mM | > 500 µg/mL | > 500 µg/mL | > 500 µg/mL | –
20 | COc1cc(NCc2ccccc2)ccc1NC(C)=O [S1.18] | > 2 mM | > 2 mM | > 500 µg/mL | > 500 µg/mL | > 500 µg/mL | –
21 | c1ccc2c(c1)[nH]c1ccccc12 [F2.5] | – | – | – | – | – | IC50 ([2]; read-out: IC50 PhoR^E): > 2 mM; IC50 ([6]; read-out: IC50 WalK): > 2 mM; MIC [3, 10]: > 500 µg/mL; MIC [4, 11]: > 500 µg/mL; MIC [5]: > 500 µg/mL
22 | Nc1nnc(-c2ccc(Br)cc2)o1 [F1.5] | – | > 2 mM | > 500 µg/mL | > 500 µg/mL | > 500 µg/mL | IC50 ([6]; IC50 WalK): > 2 mM
23 | CCc1ccc2[nH]c3ccccc3c2c1 [F2.9] | – | < 2 mM | > 500 µg/mL | > 500 µg/mL | > 500 µg/mL | inhibition at 2000 µM [2]: > 50%; IC50 ([6]; IC50 WalK): > 2 mM; MBC ([3]; DSM20231, strain DSM 20231, read-out: MBC S. aureus DSM 20231): > 500 µg/mL
24 | Nc1nc(-c2ccc(O)cc2)cs1 [F1.1] | – | – | – | – | – | IC50 ([2]; read-out: IC50 PhoR^E): > 2 mM; IC50 ([6]; read-out: IC50 WalK): > 2 mM; MBC [3, 9]: > 500 µg/mL; MBC [5]: > 500 µg/mL
25 | CC(=O)Nc1ccc2c(c1)Cc1cc(Br)ccc1-2 [S1.20] | > 2 mM | – | – | – | – | IC50 ([2]; read-out: IC50 PhoR^E): > 2 mM; MIC [3, 10]: > 500 µg/mL; MIC [4, 11]: > 500 µg/mL; MIC [5]: > 500 µg/mL
26 | CC(=O)Nc1ccc(-c2ccc(F)cc2)cc1 [S1.2] | – | < 2 mM | > 500 µg/mL | > 500 µg/mL | > 500 µg/mL | IC50 ([1]; read-out: IC50 PhoR^S): < 2 mM; inhibition at 2000 µM [1]: > 75%; inhibition at 2000 µM [2]: > 75%
27 | CC(=O)Nc1cccc(C=Cc2ccc([N+](=O)[O-])cc2)c1 [S1.11] | – | < 2 mM | > 500 µg/mL | > 500 µg/mL | > 500 µg/mL | IC50 ([1]; read-out: IC50 PhoR^S): < 2 mM; inhibition at 2000 µM [1]: > 75%; inhibition at 2000 µM [2]: > 75%
28 | CC(=O)Nc1cccc(S(=O)(=O)c2cccc(NC(C)=O)c2)c1 [S1.9] | > 2 mM | > 2 mM | > 500 µg/mL | > 500 µg/mL | > 500 µg/mL | –
29 | Nc1ncc(-c2ccc(Br)cc2)s1 [F1.4] | – | > 2 mM | > 500 µg/mL | > 500 µg/mL | > 500 µg/mL | IC50 ([6]; IC50 WalK): > 2 mM
30 | CC(=O)Nc1ccc(NC(=O)c2cccc(F)c2)cc1 [S1.3] | > 2 mM | > 2 mM | > 500 µg/mL | > 500 µg/mL | > 500 µg/mL | –
31 | COc1ccc(-c2csc(N)n2)cc1OC [F1.9] | – | > 2 mM | > 500 µg/mL | > 500 µg/mL | > 500 µg/mL | IC50 ([6]; IC50 WalK): > 2 mM
32 | CCn1c2ccccc2c2cc(NC(C)=O)ccc21 [S1.24] | > 2 mM | > 2 mM | > 500 µg/mL | > 500 µg/mL | > 500 µg/mL | –
33 | CC(=O)Nc1cccc(OCc2ccc([N+](=O)[O-])cc2)c1 [S1.8] | > 2 mM | > 2 mM | > 500 µg/mL | > 500 µg/mL | > 500 µg/mL | –
34 | CC(=O)Nc1ccc2c(c1)C(=Nc1ccc(F)cc1)c1ccccc1-2 [S1.10] | > 2 mM | > 2 mM | > 500 µg/mL | > 500 µg/mL | > 500 µg/mL | –
